A word on the solubility: it is the concentration that dissolves in the medium under given conditions. Higher therefore signals a readily soluble substance.

Values after ≈ are worked out from the molar mass of the structure shown. Like-named read-outs stand apart in the source and are kept apart here.

23 molecules from patent US12435061B2 (priority 2020, dated 2025) can be followed below.

Series [1] can be described thus: Aqueous solubility assay in Normal Ringer Solution. The note with it: Normal Ringer Solution; for solubility at 40 min: saline or isotonic, kinetic from dmso stock; for Solubility Ringer (nM): room temperature. How it is done:
Following vortex and incubation for a sufficient time (e.g. 40 minutes at room temperature), solutions were filtered, quenched with acetonitrile, and analyzed by Liquid Chromotography. Solubility Limits were determined by comparison to a standard curve.

Series [2] concerns the target hTRPV3 (Homo sapiens (Human), UniProt Q8NET8). Briefly: Whole-cell patch clamp, hTRPV3 Phase 1 / Phase 2 currents. In kind it is cell-based. In short, it runs like this: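 Currents are activated by 20 μM 2-APB or by perfusate at 28 °C or warmer, in Ringer's solution, and quantified at ±80 mV.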
(Patch clamp records ionic current or voltage across a cell membrane.)

A short description of series [3]: Metabolic Stability assay, rat liver microsomes. In kind it is in vitro ADME. On the procedure:
Metabolic Stability assay: The metabolic stability was determined by adding compound dissolved in DMSO to human or rat, liver microsomes. Briefly, assays were run with a starting concentration of 1 μM test article. The reaction was started by addition of NADPH regeneration components at 37° C. at which time an aliquot was immediately quenched in ice-cold acetonitrile/MeOH/H2O solution. Reaction mixture was incubated at 37° C. on a shaker, and additional aliquots were taken at 7, 15, 30 and 60 minutes. Following quench and centrifugation, samples were analyzed on HPLC/MS/MS.
(Microsomes from liver hold many membrane-bound enzymes, among them those of drug oxidation.)

Where [4] appears, read: Phase 1 current, inward, whole-cell patch clamp, read-out: hTRPV3 Patch P1 Inwd.
Setting [5] is: Phase 1 current, read-out: hTRPV3 (nM) (Phase 1).
The mark [6] stands for this setting: Phase 2 current, inward, whole-cell patch clamp, read-out: hTRPV3 Patch P2 Inwd.
Setting [7] is: Phase 2 current, read-out: hTRPV3 (nM) (Phase 2).
Where [8] appears, read: Phase 1 current, human TRPV3, read-out: hTRPV3 (nM) Phase 1.

Chain of hTRPV3 (Q8NET8 whole entry): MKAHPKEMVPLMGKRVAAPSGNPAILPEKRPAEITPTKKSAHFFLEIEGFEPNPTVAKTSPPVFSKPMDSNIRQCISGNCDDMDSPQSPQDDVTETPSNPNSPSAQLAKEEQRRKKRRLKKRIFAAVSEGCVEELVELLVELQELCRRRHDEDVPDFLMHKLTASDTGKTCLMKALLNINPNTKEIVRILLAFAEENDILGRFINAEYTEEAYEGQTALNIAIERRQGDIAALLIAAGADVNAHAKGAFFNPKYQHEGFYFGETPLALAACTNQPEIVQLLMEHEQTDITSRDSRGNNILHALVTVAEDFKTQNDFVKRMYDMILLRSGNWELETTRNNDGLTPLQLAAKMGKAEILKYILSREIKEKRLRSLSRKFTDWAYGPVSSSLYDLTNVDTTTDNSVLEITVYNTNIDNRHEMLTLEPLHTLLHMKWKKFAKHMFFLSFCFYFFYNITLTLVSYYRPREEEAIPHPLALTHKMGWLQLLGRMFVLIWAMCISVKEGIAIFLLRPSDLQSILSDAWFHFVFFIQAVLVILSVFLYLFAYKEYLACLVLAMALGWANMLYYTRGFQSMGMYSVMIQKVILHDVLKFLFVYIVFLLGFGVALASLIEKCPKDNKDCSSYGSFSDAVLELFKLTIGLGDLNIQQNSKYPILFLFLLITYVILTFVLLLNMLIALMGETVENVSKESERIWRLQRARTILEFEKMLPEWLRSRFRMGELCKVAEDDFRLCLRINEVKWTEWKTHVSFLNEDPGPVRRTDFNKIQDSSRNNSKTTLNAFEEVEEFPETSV

Turning to `Cc1ccc(C(=O)c2ccc(N3CC[C@H](Oc4ncccc4Cl)C3)c(CO)c2)cc1` [Compound 1-277, (S)-(4-(3-(3-chloropyridin-2-yloxy)pyrrolidin-1-yl)-3-(hydroxymethyl)phenyl)(p-tolyl)methanone], the solubility at 40 min in series [1] was 0.47 µM (≈ 0.199 µg/mL). The IC50 was 10 to 100 nM in series [2] (setting [4]) and 63 nM in series [2] (setting [5]). Also, in series [3] (read-out: LM T1/2 (min) (rat)), the half-life at 1 μM was 15.7 min.
The like results for `O=C(c1ccc(F)cc1)c1ccc(N2CC[C@H](Oc3ncccc3Cl)C2)c(CO)c1` [Compound 1-279, (S)-(4-(3-(3-chloropyridin-2-yloxy)pyrrolidin-1-yl)-3-(hydroxymethyl)phenyl)(4-fluorophenyl)methanone] were, in that order, 1.2 µM (≈ 0.512 µg/mL), 10 to 100 nM, 56.9 nM and 18.4 min.
The like results for `Cc1cccc(C(=O)c2ccc(N3CC[C@H](Oc4ncccc4Cl)C3)c(CO)c2)c1` [Compound 1-282, (S)-(4-(3-(3-chloropyridin-2-yloxy)pyrrolidin-1-yl)-3-(hydroxymethyl)phenyl)(m-tolyl)methanone] were, in that order, approximately 0.67 µM (≈ 0.283 µg/mL), 10 to 100 nM, 62.3 nM and 16.1 min.
Taken in the same sequence, the figures for `COC(c1ccc(F)cc1)c1ccc(N2CC[C@H](Oc3ncccc3Cl)C2)c(CO)c1` (stereo partly drawn) [Compound 1-289, (2-((S)-3-(3-chloropyridin-2-yloxy)pyrrolidin-1-yl)-5-((4-fluorophenyl)(methoxy)methyl)phenyl)methanol] were approximately 1.75 µM (≈ 0.775 µg/mL), 10 to 100 nM, 66.2 nM and 9.22 min.
Take `COCc1ccccc1Oc1ccc(N2CC[C@H](Oc3ncccc3Cl)C2)c(CCO)c1` [Compound 1-297, (S)-2-(2-(3-(3-chloropyridin-2-yloxy)pyrrolidin-1-yl)-5-(2-(methoxymethyl)phenoxy)phenyl)ethanol]: the solubility at 40 min in series [1] stood at 1.4 µM (≈ 0.637 µg/mL). Also, the values for the IC50 in series [2] (setting [4]) and in series [2] (setting [5]) were 10 to 100 nM and 56.6 nM, respectively. In series [3] (read-out: LM T1/2 (min) (rat)), the half-life at 1 μM was 7.44 min.
The like results for `OCc1cc(Oc2cccc(Cl)c2)ccc1N1CC[C@H](Oc2ccccn2)C1` [Compound 1-304] were, in that order, approximately 1 µM (≈ 0.397 µg/mL), 10 to 100 nM, 55.8 nM and 17.5 min.
Take `OCCc1cc(Oc2ccccc2F)ccc1N1CC[C@H](Oc2ncccc2F)C1` [Compound 1-313, (S)-2-(5-(2-fluorophenoxy)-2-(3-(3-fluoropyridin-2-yloxy)pyrrolidin-1-yl)phenyl)ethanol]: the solubility at 40 min in series [1] is approximately 2 µM (≈ 0.825 µg/mL). Moreover, the IC50 in series [2] (setting [4]) is 10 to 100 nM; in series [2] (setting [5]), 72.5 nM; in series [2] (setting [6]), 10 to 100 nM; in series [2] (setting [7]) it was 71.3 nM. Moreover, in series [3] (read-out: LM T1/2 (min) (rat)), the half-life at 1 μM came to 9.29 min.
For the molecule `CC(C)c1ccccc1Oc1ccc(N2CC[C@H](Oc3ccccn3)C2)c(CO)c1` [Compound 1-316], in series [1], the solubility at 40 min is more than 4 µM. Besides, the IC50 is less than 10 nM in series [2] (setting [4]) and 7.77 nM in series [2] (setting [5]). Besides, in series [3] (read-out: LM T1/2 (min) (rat)), the half-life at 1 μM stood at 18.9 min.
With `CC(C)c1ccccc1Oc1ccc(N2CC[C@H](Oc3ccccn3)C2)c(CCO)c1` [Compound 1-317], in series [1], the “Solubility Ringer (nM)” value is on record as “BLQ”. The IC50 in series [2] (setting [4]) was 10 to 100 nM; in series [2] (setting [5]), 20.8 nM. Further, in series [3] (read-out: LM T1/2 (min) (rat)), the half-life at 1 μM worked out at 12.1 min.
`CC(C)c1ccccc1Oc1ccc(N2CC[C@H](Oc3ncccc3Cl)C2)c(CCO)c1` [Compound 1-327, (S)-2-(2-(3-(3-chloropyridin-2-yloxy)pyrrolidin-1-yl)-5-(2-isopropylphenoxy)phenyl)ethanol]: the “Solubility Ringer (nM)” value in series [1] is recorded as “BLQ”. The IC50 in series [2] (hTRPV3 Patch P1 Inwd (nM)) was 10 to 100 nM; in series [2] (read-out: hTRPV3 (nM) (Phase 1)), 15.9 nM. The half-life at 1 μM in series [3] (read-out: LM T1/2 (min) (rat)) came to 14.6 min.
Molecule `CCc1c(Cl)ncnc1Oc1ccc(N2CC[C@H](Oc3ncccc3Cl)C2)c(CO)c1` [Compound 1-358, (S)-(5-(6-chloro-5-ethylpyrimidin-4-yloxy)-2-(3-(3-chloropyridin-2-yloxy)pyrrolidin-1-yl)phenyl)methanol] displayed a solubility at 40 min in series [1] of approximately 2.1 µM (≈ 0.969 µg/mL). Moreover, the values for the IC50 in series [2] (setting [4]) and in series [2] (setting [5]) were 100 to 1000 nM and 174 nM, respectively. In series [3] (read-out: LM T1/2 (min) (rat)), the half-life at 1 μM came to 16.7 min.
Turning to `NC(=O)c1cc(-c2ccccc2)ccc1N1CC[C@H](Nc2ncccc2Cl)C1` [Compound 1-377, (S)-4-(3-(3-chloropyridin-2-ylamino)pyrrolidin-1-yl)biphenyl-3-carboxamide], the solubility at 40 min in series [1] was more than 3.2 µM. Moreover, the IC50 was 100 to 1000 nM in series [2] (setting [4]), 360 nM in series [2] (setting [5]), 100 to 1000 nM in series [2] (setting [6]) and 318 nM in series [2] (setting [7]). In addition, in series [3] (read-out: LM T1/2 (min) (rat)), the half-life at 1 μM turned out to be 35.6 min.
`CCc1ccccc1Oc1ccc(N2CC[C@H](Nc3ncccc3Cl)C2)c(CO)c1` [Compound 1-380, (S)-(2-(3-(3-chloropyridin-2-ylamino)pyrrolidin-1-yl)-5-(2-ethylphenoxy)phenyl)methanol]: the “Solubility Ringer (nM)” value in series [1] is “BLQ”. Besides, the IC50 in series [2] (setting [4]) is 10 to 100 nM; in series [2] (setting [5]) it was 25.6 nM. Also, the half-life at 1 μM in series [3] (read-out: LM T1/2 (min) (rat)) came out at 20.9 min.
`Cc1ccccc1Oc1ccc(N2CC[C@H](Nc3ncccc3Cl)C2)c(CO)c1` [Compound 1-383, (S)-(2-(3-(3-chloropyridin-2-ylamino)pyrrolidin-1-yl)-5-(o-tolyloxy)phenyl)methanol]: the solubility at 40 min in series [1] was approximately 0.35 µM (≈ 0.143 µg/mL). For the same molecule, the results for the IC50 in series [2] (setting [4]) and in series [2] (setting [5]) were 10 to 100 nM and 12.6 nM, respectively. For the same molecule, the half-life at 1 μM in series [3] (read-out: LM T1/2 (min) (rat)) was 31.4 min.
The like results for `OCCc1cc(C(O)c2ccccc2Cl)ccc1N1CC[C@H](Nc2ccc(F)cn2)C1` (stereo partly drawn) [Compound 1-390, 2-(5-((2-chlorophenyl)(hydroxy)methyl)-2-((S)-3-(5-fluoropyridin-2-ylamino)pyrrolidin-1-yl)phenyl)ethanol] were, in that order, more than 13.6 µM, 100 to 1000 nM, 219 nM and 7.23 min.
Molecule `CCc1ccccc1Oc1ccc(N2CC[C@H](OCc3ncccc3C)C2)c(CO)c1` [Compound 1-398] yielded a solubility at 40 min in series [1] of approximately 1.4 µM (≈ 0.586 µg/mL). Moreover, the IC50 in series [2] (setting [5]) was found to be 187 nM; in series [2] (setting [7]) it was 64.8 nM. Besides, the half-life at 1 μM in series [3] (read-out: LM T1/2 (min) (rat)) is 5.19 min.
In the case of `CC(C)c1ccccc1-c1ccc(C2CCN(C(=O)c3ccc(Cl)cn3)C2)c(CO)c1` (centres unmarked) [Compound 2-30], the solubility at 40 min in series [1] is approximately 3.7 µM (≈ 1.61 µg/mL). For the same molecule, the IC50 in series [2] (setting [8]) is 2.68 nM; in series [2] (setting [4]), less than 10 nM. In addition, the half-life at 1 μM in series [3] (read-out: LM T1/2 (min) rat) is 13.9 min.
`CC(C)c1ccccc1-c1ccc(C2CCN(C(=O)c3ccc(Cl)cn3)C2)c(C(N)=O)c1` (centres unmarked) [Compound 2-35] had a solubility at 40 min in series [1] of approximately 3.3 µM (≈ 1.48 µg/mL). For the same molecule, the IC50 is 61.7 nM in series [2] (setting [8]); 10 to 100 nM in series [2] (setting [4]); 64.3 nM in series [2] (Phase 2 current, human TRPV3, read-out: hTRPV3 (nM) Phase 2); 10 to 100 nM in series [2] (setting [6]). Moreover, in series [3] (read-out: LM T1/2 (min) rat), the half-life at 1 μM amounted to 7.16 min.
Molecule `CCc1ccccc1-c1ccc(C2CCN(C(=O)c3ccc(C)cn3)C2)c(CO)c1` (centres unmarked) [Compound 2-50, (3-(2′-ethyl-3-(hydroxymethyl)biphenyl-4-yl)pyrrolidin-1-yl)(5-methylpyridin-2-yl) methanone] returned a solubility at 40 min in series [1] of approximately 3.9 µM (≈ 1.56 µg/mL). Further, the values for the IC50 in series [2] (setting [8]) and in series [2] (setting [4]) were 89.8 nM and 10 to 100 nM, respectively. Also, the half-life at 1 μM in series [3] (read-out: LM T1/2 (min) rat) was determined as 8.67 min.
`CCc1ccccc1-c1ccc(C2CCN(C(=O)c3ccc(Cl)cn3)C2)c(CO)c1` (centres unmarked) [Compound 2-51, (5-chloropyridin-2-yl)(3-(2′-ethyl-3-(hydroxymethyl)biphenyl-4-yl)pyrrolidin-1-yl) methanone]: the solubility at 40 min in series [1] was approximately 5.3 µM (≈ 2.23 µg/mL). The IC50 is 7.37 nM in series [2] (setting [8]) and less than 10 nM in series [2] (setting [4]). For the same molecule, the half-life at 1 μM in series [3] (read-out: LM T1/2 (min) rat) is 14.4 min.
Taken in the same sequence, the figures for `CCc1cc(C)ccc1-c1ccc(C2CCN(C(=O)c3ccc(Cl)cn3)C2)c(CO)c1` (centres unmarked) [Compound 2-66, (5-chloropyridin-2-yl)(3-(2′-ethyl-3-(hydroxymethyl)-4′-methylbiphenyl-4-yl)pyrrolidin-1-yl)methanone] were approximately 1.9 µM (≈ 0.826 µg/mL), 16.5 nM, 10 to 100 nM and 24.9 min.
Taken in the same sequence, the figures for `CCc1c(C)cccc1-c1ccc(C2CCN(C(=O)c3ccc(Cl)cn3)C2)c(CO)c1` (centres unmarked) [Compound 2-67, (5-chloropyridin-2-yl)(3-(2′-ethyl-3-(hydroxymethyl)-3′-methylbiphenyl-4-yl)pyrrolidin-1-yl)methanone] were approximately 3.6 µM (≈ 1.57 µg/mL), 0.698 nM, less than 10 nM and 8.47 min.
`CCc1ccccc1-c1ccc(C2CCN(C(=O)c3ccc(OC)cn3)C2)c(CO)c1` (centres unmarked) [Compound 2-73, (3-(2′-ethyl-3-(hydroxymethyl)biphenyl-4-yl)pyrrolidin-1-yl)(5-methoxypyridin-2-yl)methanone] yielded a solubility at 40 min in series [1] of more than 26.2 µM. Moreover, the IC50 in series [2] (setting [8]) was 20.5 nM; in series [2] (setting [4]), 10 to 100 nM. In addition, in series [3] (read-out: LM T1/2 (min) rat), the half-life at 1 μM was found to be 9.84 min.
